Measured values: patent US5879942A, “Processing enzyme for polypeptide” (Kabushiki Kaisha Hayashibara Seibutsu Kagaku Kenkyujo, priority 1996, dated 1999)

Molecular target: T1, the present enzyme (Homo sapiens, UniProt P29466)
T1 construct: Using the anti-human ICE-p20 antibody and the antihuman ICE-p10 antibody; endogenous in cells
T1 sequence (P29466 120-297 limits assumed): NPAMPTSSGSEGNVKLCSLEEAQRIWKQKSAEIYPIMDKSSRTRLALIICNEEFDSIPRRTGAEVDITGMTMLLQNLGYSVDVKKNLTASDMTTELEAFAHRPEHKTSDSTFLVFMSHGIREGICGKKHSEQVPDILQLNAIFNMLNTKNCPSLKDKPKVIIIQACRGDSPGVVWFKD
T1 sequence (P29466 317-404 limits assumed): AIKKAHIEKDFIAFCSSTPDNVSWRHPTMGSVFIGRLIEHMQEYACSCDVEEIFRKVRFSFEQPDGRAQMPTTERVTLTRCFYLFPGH
Assay: Activity of inhibitory agent on enzyme: conversion of precursor, Western Blotting
Format: biochemical
Settings: for band corresponding to the active form on Western Blotting: enzyme of Example 1 (THP-1 cells), 37° C. for 3 hours; for Inhibitory agent: enzyme obtainable from a human hematopoietic cell, general property; for enzyme activity inhibited: enzyme of Example 7 (HL-60 cells), methods in Examples 2-5
Protocol: A substrate solution was prepared by dissolving the precursor of the polypeptide in Example 4-1 in 100 mM Hepes buffer (pH 7.4), containing 10 v/v % glycerol, 0.1 w/v % CHAPS and 2 mM dithiothreitol, to give a concentration of 500 nM, and mixed with 350 units/ml of the enzyme solution in Example 1, followed by the incubation at 37° C. At 0 min, 10 min, 30 min, one hour, 3 hours, 6 hours and 18 hours after initiating the incubation, a portion of the reaction mixture was sampled at each sampling time and admixed with iodoacetamide to give a final concentration of 200 μg/ml to suspend the reaction. The Western Blotting method using the monoclonal antibody, as disclosed in Japanese Patent Application No.231,598/96 applied by the same applicant of the present invention, was applied to the reaction mixture to study the change on passage of time during the conversion of the precursor into the active form.
In the conversion method for precursor in Example 4-2, the present enzyme in Example 1 was admixed with 5 μM Ac-YVAD-CHO or 650 μM iodoacetamide and reacted at 37° C. for 3 hours.

Compound	band corresponding to the active form on Western Blotting (5 μM Ac-YVAD-CHO)	Inhibitory agent	enzyme activity inhibited	band corresponding to the active form on Western Blotting (650 μM iodoacetamide)
CC(=O)N[C@@H](Cc1ccc(O)cc1)C(=O)N[C@H](C(=O)N[C@@H](C)C(=O)N[C@H](C=O)CC(=O)O)C(C)C [Ac-YVAD-CHO, acetyl-L-tyrosyl-L-varyl-L-alanyl-L-aspart-1-al]	no band corresponding to the active form was detected	inhibited	inhibited	
NC(=O)CI [iodoacetamide]		inhibited	inhibited	no band corresponding to the active form was detected
